{"source": "PubChem BioAssay AID2060901", "about": "(Molecular Pharmacology Branch, DTP, NCI, 2025);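 note: spheroids exposed to compounds for 7 days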;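 for viability, T/C: 100% = DMSO vehicle control viability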", "system": "422866-222-R5-J1-PDC complex spheroids viability", "assay": "Anticancer human tumor 422866-222-R5-J1-PDC patient-derived pancreatic adenocarcinoma cell line growth inhibition [RAS]", "conditions": "for IC50: curve of first compound; for viability, T/C: stronger effect = lower value", "outline": "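Agents were tested in combination matrices in half-log decrements from a top concentration at or near clinical Cmax (10 microM if undetermined). Targets were multi-cell spheroids of tumour lines plus HUVEC and MSC stromal cells.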"}
{"smiles": "CC1(C)CCC(Nc2ncc(C(F)(F)F)c(-c3c[nH]c4c(P(C)(C)=O)c(C#N)ccc34)n2)CN1", "note": "(configuration not stated) + C#Cc1c(F)ccc2cc(O)cc(-c3ncc4c(N5CC6CCC(C5)N6)nc(OCC56CCCN5CC(F)C6)nc4c3F)c12", "values": [{"measurement": "IC50", "setting": "second compound 0.0316 µM", "result": "> 300", "unit": "nM"}, {"measurement": "IC50", "setting": "second compound 0.1 µM", "result": 91.8, "unit": "nM"}, {"measurement": "IC50", "setting": "second compound 0.316 µM", "result": 7.9, "unit": "nM"}, {"measurement": "IC50", "setting": "second compound 1 µM", "result": 1.6, "unit": "nM"}, {"measurement": "IC50", "setting": "second compound 3.16 µM", "result": "< 0.949", "unit": "nM"}, {"measurement": "IC50", "setting": "second compound 10 µM", "result": "< 0.949", "unit": "nM"}, {"measurement": "viability, T/C", "setting": "second compound 0.0316 µM, first compound 0.000949 µM", "result": 112, "unit": "%"}, {"measurement": "viability, T/C", "setting": "second compound 0.0316 µM, first compound 0.003 µM", "result": 83.3, "unit": "%"}, {"measurement": "viability, T/C", "setting": "second compound 0.0316 µM, first compound 0.00949 µM", "result": 80.6, "unit": "%"}, {"measurement": "viability, T/C", "setting": "second compound 0.0316 µM, first compound 0.03 µM", "result": 55.6, "unit": "%"}, {"measurement": "viability, T/C", "setting": "second compound 0.0316 µM, first compound 0.0949 µM", "result": 62, "unit": "%"}, {"measurement": "viability, T/C", "setting": "second compound 0.0316 µM, first compound 0.3 µM", "result": 56.4, "unit": "%"}, {"measurement": "viability, T/C", "setting": "second compound 0.1 µM, first compound 0.000949 µM", "result": 100, "unit": "%"}, {"measurement": "viability, T/C", "setting": "second compound 0.1 µM, first compound 0.003 µM", "result": 68, "unit": "%"}, {"measurement": "viability, T/C", "setting": "second compound 0.1 µM, first compound 0.00949 µM", "result": 73.8, "unit": "%"}, {"measurement": "viability, T/C", "setting": "second compound 0.1 µM, first compound 0.03 µM", "result": 38.2, "unit": "%"}, {"measurement": "viability, T/C", "setting": "second compound 0.1 µM, first compound 0.0949 µM", "result": 47.5, "unit": "%"}, {"measurement": "viability, T/C", "setting": "second compound 0.1 µM, first compound 0.3 µM", "result": 55.6, "unit": "%"}, {"measurement": "viability, T/C", "setting": "second compound 0.316 µM, first compound 0.000949 µM", "result": 64.2, "unit": "%"}, {"measurement": "viability, T/C", "setting": "second compound 0.316 µM, first compound 0.003 µM", "result": 66.4, "unit": "%"}, {"measurement": "viability, T/C", "setting": "second compound 0.316 µM, first compound 0.00949 µM", "result": 45.5, "unit": "%"}, {"measurement": "viability, T/C", "setting": "second compound 0.316 µM, first compound 0.03 µM", "result": 45.1, "unit": "%"}, {"measurement": "viability, T/C", "setting": "second compound 0.316 µM, first compound 0.0949 µM", "result": 52.6, "unit": "%"}, {"measurement": "viability, T/C", "setting": "second compound 0.316 µM, first compound 0.3 µM", "result": 45.3, "unit": "%"}, {"measurement": "viability, T/C", "setting": "second compound 1 µM, first compound 0.000949 µM", "result": 54.1, "unit": "%"}, {"measurement": "viability, T/C", "setting": "second compound 1 µM, first compound 0.003 µM", "result": 44.1, "unit": "%"}, {"measurement": "viability, T/C", "setting": "second compound 1 µM, first compound 0.00949 µM", "result": 40.3, "unit": "%"}, {"measurement": "viability, T/C", "setting": "second compound 1 µM, first compound 0.03 µM", "result": 42.7, "unit": "%"}, {"measurement": "viability, T/C", "setting": "second compound 1 µM, first compound 0.0949 µM", "result": 34.5, "unit": "%"}, {"measurement": "viability, T/C", "setting": "second compound 1 µM, first compound 0.3 µM", "result": 34.6, "unit": "%"}, {"measurement": "viability, T/C", "setting": "second compound 3.16 µM, first compound 0.000949 µM", "result": 27, "unit": "%"}, {"measurement": "viability, T/C", "setting": "second compound 3.16 µM, first compound 0.003 µM", "result": 37.7, "unit": "%"}, {"measurement": "viability, T/C", "setting": "second compound 3.16 µM, first compound 0.00949 µM", "result": 28.4, "unit": "%"}, {"measurement": "viability, T/C", "setting": "second compound 3.16 µM, first compound 0.03 µM", "result": 28.8, "unit": "%"}, {"measurement": "viability, T/C", "setting": "second compound 3.16 µM, first compound 0.0949 µM", "result": 29.1, "unit": "%"}, {"measurement": "viability, T/C", "setting": "second compound 3.16 µM, first compound 0.3 µM", "result": 26.9, "unit": "%"}, {"measurement": "viability, T/C", "setting": "second compound 10 µM, first compound 0.000949 µM", "result": 24.2, "unit": "%"}, {"measurement": "viability, T/C", "setting": "second compound 10 µM, first compound 0.003 µM", "result": 25.1, "unit": "%"}, {"measurement": "viability, T/C", "setting": "second compound 10 µM, first compound 0.00949 µM", "result": 24.1, "unit": "%"}, {"measurement": "viability, T/C", "setting": "second compound 10 µM, first compound 0.03 µM", "result": 27.8, "unit": "%"}, {"measurement": "viability, T/C", "setting": "second compound 10 µM, first compound 0.0949 µM", "result": 27.9, "unit": "%"}, {"measurement": "viability, T/C", "setting": "second compound 10 µM, first compound 0.3 µM", "result": 31.2, "unit": "%"}]}
